Test system: 186277-243-T-J2-PDC complex spheroid growth
Experiment: Anticancer human tumor 186277-243-T-J2-PDC patient-derived colon adenocarcinoma cell line growth inhibition [AhR]
Details: for IC50: curve of first compound; for viability, T/C: stronger effect = lower value
Outline: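 Complex tumor spheroids co-cultured with HUVEC and human MSC stroma; AhR antagonists tested in combination with standard-of-care and investigational agents. Top concentration at or near clinical Cmax (else 10 microM), half-log dilutions; growth expressed as percent test/control.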

[1] = second compound 0.1 µM, first compound 0.0316 µM
[2] = second compound 0.1 µM, first compound 0.1 µM
[3] = second compound 0.1 µM, first compound 0.316 µM
[4] = second compound 0.1 µM, first compound 1 µM
[5] = second compound 0.1 µM, first compound 3.16 µM
[6] = second compound 0.1 µM, first compound 10 µM
[7] = second compound 0.316 µM, first compound 0.0316 µM
[8] = second compound 0.316 µM, first compound 0.1 µM
[9] = second compound 0.316 µM, first compound 0.316 µM
[10] = second compound 0.316 µM, first compound 1 µM
[11] = second compound 0.316 µM, first compound 3.16 µM
[12] = second compound 0.316 µM, first compound 10 µM
[13] = second compound 1 µM, first compound 0.0316 µM
[14] = second compound 1 µM, first compound 0.1 µM
[15] = second compound 1 µM, first compound 0.316 µM
[16] = second compound 1 µM, first compound 1 µM
[17] = second compound 1 µM, first compound 3.16 µM
[18] = second compound 1 µM, first compound 10 µM
[19] = second compound 3.16 µM, first compound 0.0316 µM
[20] = second compound 3.16 µM, first compound 0.1 µM
[21] = second compound 3.16 µM, first compound 0.316 µM
[22] = second compound 3.16 µM, first compound 1 µM
[23] = second compound 3.16 µM, first compound 3.16 µM
[24] = second compound 3.16 µM, first compound 10 µM
[25] = second compound 10 µM, first compound 0.0316 µM
[26] = second compound 10 µM, first compound 0.1 µM
[27] = second compound 10 µM, first compound 0.316 µM
[28] = second compound 10 µM, first compound 1 µM
[29] = second compound 10 µM, first compound 3.16 µM
[30] = second compound 10 µM, first compound 10 µM
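Further: spheroids exposed to compounds for seven days before the viability read.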
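Wherever viability, T/C is given: luminescent signal used as a stand-in for viable cell amount; 100% = DMSO vehicle control wells.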

`CC(C)c1c(-c2ccccc2)nc2c(C#N)c[nH]n2c1=O` + Cc1cncc(-c2nc(NCCc3c[nH]c4ccccc34)c3ncn(C(C)C)c3n2)c1 gave an IC50 (second compound 0.1 µM) greater than 10000 nM, an IC50 (second compound 0.316 µM) greater than 10000 nM and an IC50 (second compound 1 µM) greater than 10000 nM. It also gave an IC50 (second compound 3.16 µM) greater than 10000 nM, an IC50 (second compound 10 µM) of less than 31.6 nM and a viability, T/C [1] of 127%. For the same compound, the viability, T/C [2] was 105%, the viability, T/C [3] was 101% and the viability, T/C [4] was 98.3%. It also gave a viability, T/C [5] of 95.8%, a viability, T/C [6] of 96.5% and a viability, T/C [7] of 102%. For the same compound, the viability, T/C [8] was 99.6%, the viability, T/C [9] was 101% and the viability, T/C [10] was 98.8%. It also gave a viability, T/C [11] of 95%, a viability, T/C [12] of 108% and a viability, T/C [13] of 107%. It also gave a viability, T/C [14] of 101%, a viability, T/C [15] of 98.5% and a viability, T/C [16] of 103%. It also gave a viability, T/C [17] of 94.4%, a viability, T/C [18] of 102% and a viability, T/C [19] of 109%. The viability, T/C [20] was 111%, the viability, T/C [21] was 96.3% and the viability, T/C [22] was 96.1%. For the same compound, the viability, T/C [23] was 108%, the viability, T/C [24] was 102% and the viability, T/C [25] was 26%. For the same compound, the viability, T/C [26] was 22.7%, the viability, T/C [27] was 20.5% and the viability, T/C [28] was 25.6%. For the same compound, the viability, T/C [29] was 23.9% and the viability, T/C [30] was 34.4%.

`CC1COCCN1c1cc(-c2ccnn2C)c2ccnc(-c3ccn[nH]3)c2n1` (stereo not given) + Cc1cncc(-c2nc(NCCc3c[nH]c4ccccc34)c3ncn(C(C)C)c3n2)c1 gave an IC50 (second compound 0.1 µM) of 79.8 nM, an IC50 (second compound 0.316 µM) of 79.3 nM and an IC50 (second compound 1 µM) of 80.9 nM. For the same compound, the IC50 (second compound 3.16 µM) was 72.9 nM, the IC50 (second compound 10 µM) was less than 3.16 nM and the viability, T/C (second compound 0.1 µM, first compound 0.00316 µM) was 99%. It also gave a viability, T/C (second compound 0.1 µM, first compound 0.01 µM) of 106%, a viability, T/C [1] of 112% and a viability, T/C [2] of 36.4%. It also gave a viability, T/C [3] of 7.55%, a viability, T/C [4] of 3.82% and a viability, T/C (second compound 0.316 µM, first compound 0.00316 µM) of 97.4%. For the same compound, the viability, T/C (second compound 0.316 µM, first compound 0.01 µM) was 106%, the viability, T/C [7] was 122% and the viability, T/C [8] was 35.2%. The viability, T/C [9] was 8.4%, the viability, T/C [10] was 4.07% and the viability, T/C (second compound 1 µM, first compound 0.00316 µM) was 107%. For the same compound, the viability, T/C (second compound 1 µM, first compound 0.01 µM) was 90%, the viability, T/C [13] was 119% and the viability, T/C [14] was 37.4%. For the same compound, the viability, T/C [15] was 7.76%, the viability, T/C [16] was 5.82% and the viability, T/C (second compound 3.16 µM, first compound 0.00316 µM) was 95.3%. For the same compound, the viability, T/C (second compound 3.16 µM, first compound 0.01 µM) was 105%, the viability, T/C [19] was 116% and the viability, T/C [20] was 29%. The viability, T/C [21] was 9.02%, the viability, T/C [22] was 5.27% and the viability, T/C (second compound 10 µM, first compound 0.00316 µM) was 25.3%. It also gave a viability, T/C (second compound 10 µM, first compound 0.01 µM) of 26.8%, a viability, T/C [25] of 13.8% and a viability, T/C [26] of 6.13%. For the same compound, the viability, T/C [27] was 3.4% and the viability, T/C [28] was 2.65%.

`CC1COCCN1c1cc(C2(S(C)(=N)=O)CC2)nc(-c2ccnc3[nH]ccc23)n1` (stereo not given) + Cc1cncc(-c2nc(NCCc3c[nH]c4ccccc34)c3ncn(C(C)C)c3n2)c1 showed an IC50 (second compound 0.1 µM) of 4070 nM, an IC50 (second compound 0.316 µM) of 3990 nM and an IC50 (second compound 1 µM) of 3720 nM. For the same compound, the IC50 (second compound 3.16 µM) was 2900 nM, the IC50 (second compound 10 µM) was 1300 nM and the viability, T/C [1] was 85.5%. The viability, T/C [2] was 119%, the viability, T/C [3] was 91.6% and the viability, T/C [4] was 99.5%. It also gave a viability, T/C [5] of 62%, a viability, T/C [6] of 6.76% and a viability, T/C [7] of 96.8%. It also gave a viability, T/C [8] of 97.2%, a viability, T/C [9] of 87.3% and a viability, T/C [10] of 106%. It also gave a viability, T/C [11] of 60.9%, a viability, T/C [12] of 7.2% and a viability, T/C [13] of 95.4%. It also gave a viability, T/C [14] of 106%, a viability, T/C [15] of 97.3% and a viability, T/C [16] of 106%. For the same compound, the viability, T/C [17] was 57.1%, the viability, T/C [18] was 7.29% and the viability, T/C [19] was 105%. The viability, T/C [20] was 105%, the viability, T/C [21] was 102% and the viability, T/C [22] was 105%. For the same compound, the viability, T/C [23] was 45.5%, the viability, T/C [24] was 8.1% and the viability, T/C [25] was 79.2%. For the same compound, the viability, T/C [26] was 79%, the viability, T/C [27] was 70.1% and the viability, T/C [28] was 60.6%. For the same compound, the viability, T/C [29] was 18.6% and the viability, T/C [30] was 5.52%.

With `COc1ccc([C@@H](O)c2cc(-c3ncnc4cc(N5CCOCC5)ccc34)c(F)cc2Cl)nn1` + Cc1cncc(-c2nc(NCCc3c[nH]c4ccccc34)c3ncn(C(C)C)c3n2)c1 the IC50 (second compound 0.1 µM) was greater than 10000 nM, the IC50 (second compound 0.316 µM) was greater than 10000 nM and the IC50 (second compound 1 µM) was greater than 10000 nM. It also gave an IC50 (second compound 3.16 µM) greater than 10000 nM, an IC50 (second compound 10 µM) of less than 31.6 nM and a viability, T/C [1] of 103%. For the same compound, the viability, T/C [2] was 102%, the viability, T/C [3] was 104% and the viability, T/C [4] was 116%. It also gave a viability, T/C [5] of 94.2%, a viability, T/C [6] of 66.2% and a viability, T/C [7] of 109%. For the same compound, the viability, T/C [8] was 102%, the viability, T/C [9] was 98.3% and the viability, T/C [10] was 104%. For the same compound, the viability, T/C [11] was 114%, the viability, T/C [12] was 64.4% and the viability, T/C [13] was 103%. For the same compound, the viability, T/C [14] was 103%, the viability, T/C [15] was 113% and the viability, T/C [16] was 113%. It also gave a viability, T/C [17] of 99.4%, a viability, T/C [18] of 68.7% and a viability, T/C [19] of 94%. The viability, T/C [20] was 107%, the viability, T/C [21] was 115% and the viability, T/C [22] was 106%. It also gave a viability, T/C [23] of 101%, a viability, T/C [24] of 55.7% and a viability, T/C [25] of 23.3%. For the same compound, the viability, T/C [26] was 21.7%, the viability, T/C [27] was 20.6% and the viability, T/C [28] was 26%. The viability, T/C [29] was 16.6% and the viability, T/C [30] was 13.2%.

`O=C(C=Cn1cnc(-c2cc(C(F)(F)F)cc(C(F)(F)F)c2)n1)NNc1cnccn1` + Cc1cncc(-c2nc(NCCc3c[nH]c4ccccc34)c3ncn(C(C)C)c3n2)c1 was tested, and the IC50 (second compound 0.1 µM) was 430 nM, the IC50 (second compound 0.316 µM) was 456 nM and the IC50 (second compound 1 µM) was 482 nM. For the same compound, the IC50 (second compound 3.16 µM) was 380 nM, the IC50 (second compound 10 µM) was 40.4 nM and the viability, T/C (second compound 0.1 µM, first compound 0.00949 µM) was 103%. The viability, T/C (second compound 0.1 µM, first compound 0.03 µM) was 111%, the viability, T/C (second compound 0.1 µM, first compound 0.0949 µM) was 114% and the viability, T/C (second compound 0.1 µM, first compound 0.3 µM) was 67.2%. For the same compound, the viability, T/C (second compound 0.1 µM, first compound 0.949 µM) was 13.3%, the viability, T/C (second compound 0.1 µM, first compound 3 µM) was 4.12% and the viability, T/C (second compound 0.316 µM, first compound 0.00949 µM) was 110%. It also gave a viability, T/C (second compound 0.316 µM, first compound 0.03 µM) of 105%, a viability, T/C (second compound 0.316 µM, first compound 0.0949 µM) of 124% and a viability, T/C (second compound 0.316 µM, first compound 0.3 µM) of 73.2%. The viability, T/C (second compound 0.316 µM, first compound 0.949 µM) was 13.6%, the viability, T/C (second compound 0.316 µM, first compound 3 µM) was 4.58% and the viability, T/C (second compound 1 µM, first compound 0.00949 µM) was 109%. The viability, T/C (second compound 1 µM, first compound 0.03 µM) was 123%, the viability, T/C (second compound 1 µM, first compound 0.0949 µM) was 123% and the viability, T/C (second compound 1 µM, first compound 0.3 µM) was 75.2%. The viability, T/C (second compound 1 µM, first compound 0.949 µM) was 15.4%, the viability, T/C (second compound 1 µM, first compound 3 µM) was 5.33% and the viability, T/C (second compound 3.16 µM, first compound 0.00949 µM) was 117%. The viability, T/C (second compound 3.16 µM, first compound 0.03 µM) was 116%, the viability, T/C (second compound 3.16 µM, first compound 0.0949 µM) was 127% and the viability, T/C (second compound 3.16 µM, first compound 0.3 µM) was 60.1%. It also gave a viability, T/C (second compound 3.16 µM, first compound 0.949 µM) of 15.1%, a viability, T/C (second compound 3.16 µM, first compound 3 µM) of 6.75% and a viability, T/C (second compound 10 µM, first compound 0.00949 µM) of 67.5%. It also gave a viability, T/C (second compound 10 µM, first compound 0.03 µM) of 60.2%, a viability, T/C (second compound 10 µM, first compound 0.0949 µM) of 21.6% and a viability, T/C (second compound 10 µM, first compound 0.3 µM) of 7.78%. It also gave a viability, T/C (second compound 10 µM, first compound 0.949 µM) of 3.76% and a viability, T/C (second compound 10 µM, first compound 3 µM) of 3.02%.

Reference: PubChem BioAssay AID1918991 (Molecular Pharmacology Branch, DTP, NCI, 2023)
